From patent US10590086B2, “Pharmaceutical compound” (IOmet Pharma Ltd., priority 2014, dated 2020)

Legend:
TDO [1] = target: T1, TDO (Homo sapiens, UniProt P48775); assay: A172 kynurenine cell-based assay; design: This assay utilised cancer cells which expressed either TDO or IDO; endogenous in cells; host or cells: A172 (human glioblastoma); settings: A172 human glioblastoma cells, 48 hours, read-out: A172 Kynurenine cell based assay pIC50 (converted)
Procedure, shortened: (§1)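 A172 glioblastoma cells (TDO; 30,000/well) and SKOV3 ovarian cells (IDO induced with 500 ng/ml IFN-γ; 40,000/well) were grown in phenol red-free RPMI with 10% FCS, 2 mM L-glutamine and 500 μM L-tryptophan. They were incubated ±compound for 48 hours at 37 °C. Supernatant kynurenine was read with Ehrlich's reagent (5 min) at […] absorbance.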

IDO [2] = target: T2, IDO (Homo sapiens, UniProt P14902); assay: hIDO biochemical coupled assay; settings: 45 μM L-tryptophan, read-out: hIDO biochemical assay pIC50 (converted)
T2 sequence (P14902 whole entry): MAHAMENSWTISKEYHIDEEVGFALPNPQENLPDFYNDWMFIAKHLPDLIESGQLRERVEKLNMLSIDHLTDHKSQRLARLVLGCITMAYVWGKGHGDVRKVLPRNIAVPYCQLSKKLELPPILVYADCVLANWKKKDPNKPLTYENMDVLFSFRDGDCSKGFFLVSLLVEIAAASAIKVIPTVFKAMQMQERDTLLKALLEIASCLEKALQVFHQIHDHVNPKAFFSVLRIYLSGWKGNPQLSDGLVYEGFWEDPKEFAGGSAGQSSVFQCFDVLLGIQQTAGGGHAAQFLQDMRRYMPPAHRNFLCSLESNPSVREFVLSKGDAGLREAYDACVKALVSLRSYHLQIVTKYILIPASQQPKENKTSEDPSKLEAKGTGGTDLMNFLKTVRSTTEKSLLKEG

IDO [3] = target: T2, IDO; assay: SKOV3 kynurenine cell-based assay (IDO induced by IFN-γ); design: IDO expression was induced in the SKOV3 cells by the addition of 500 ng/ml IFN-γ; endogenous in cells; host or cells: SKOV3 (human ovarian adenocarcinoma), induced with IFN-γ; settings: 48 hours, read-out: SKOV3 Kynurenine cell based assay pIC50 (converted)
Procedure, shortened: as §1

TDO [4] = target: T1, TDO; assay: hTDO biochemical coupled assay; settings: 330 μM L-tryptophan, read-out: hTDO biochemical assay pIC50 (converted)
[5] = SKOV3 human ovarian adenocarcinoma cells, 500 ng/ml IFN-γ, 500 μM L-tryptophan
[6] = SKOV3 cells, IDO induced by 500 ng/ml IFN-γ

T1 sequence (P48775 whole entry): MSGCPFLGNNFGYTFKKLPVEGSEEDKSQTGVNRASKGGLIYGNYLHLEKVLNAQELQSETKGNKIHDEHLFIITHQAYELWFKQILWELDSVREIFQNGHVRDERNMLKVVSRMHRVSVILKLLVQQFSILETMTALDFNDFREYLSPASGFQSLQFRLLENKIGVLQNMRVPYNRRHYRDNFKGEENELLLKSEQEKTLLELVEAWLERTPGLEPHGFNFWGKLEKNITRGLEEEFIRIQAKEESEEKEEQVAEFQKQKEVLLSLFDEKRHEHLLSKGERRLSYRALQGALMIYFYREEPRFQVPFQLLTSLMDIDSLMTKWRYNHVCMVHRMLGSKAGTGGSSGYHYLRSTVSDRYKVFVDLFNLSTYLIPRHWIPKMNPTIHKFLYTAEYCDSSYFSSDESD

| SMILES | IC50 (TDO [1]; 500 μM L-tryptophan) [µM] | IC50 (IDO [2]; 17 minutes, room temperature) [µM] | IC50 (IDO [3]; [5]) [µM] | IC50 (TDO [4]; 17 minutes, room temperature) [µM] | IC50 (TDO [1]) [µM] | IC50 (IDO [2]) [µM] | IC50 (IDO [3]; [6]) [µM] | IC50 (TDO [4]) [µM] |
| --- | --- | --- | --- | --- | --- | --- | --- | --- |
| CS(=O)(=O)NC1CCN(c2cc(Cl)cc3[nH]ncc23)CC1 [Compound 97] | < 3.16 | 3.24 to 31.6 | 32.4 to 100 | < 3.16 |  |  |  |  |
| CC(=O)N1CCN(c2ccc3[nH]ncc3c2)CC1 [Compound 41] | 3.24 to 31.6 | > 100 | > 100 | 32.4 to 100 |  |  |  |  |
| CC(=O)NCC1(C)CN(c2cc(Cl)cc3[nH]ncc23)C1 [Compound 446] | < 3.16 | > 100 | < 3.16 | < 3.16 |  |  |  |  |
| CN(c1cc(N2CCN(S(C)(=O)=O)C(C)(C)C2)c2cn[nH]c2c1)S(C)(=O)=O [Compound 310] | 32.4 to 100 | > 100 | > 100 | > 100 |  |  |  |  |
| CC(=O)N1CCN(c2cccc3[nH]ncc23)CC1 [Compound 11] | 3.24 to 31.6 | > 100 | 32.4 to 100 | 32.4 to 100 |  |  |  |  |
| COCCc1cc(Cl)cc2[nH]ncc12 [Compound 288] | < 3.16 | > 100 | > 100 | < 3.16 |  |  |  |  |
| Clc1cc(N2CCc3cnccc3C2)c2cn[nH]c2c1 [Compound 343] | < 3.16 | > 100 | 32.4 to 100 | < 3.16 |  |  |  |  |
| CC(=O)N1CC2(C1)CN(c1cc(Cl)cc3[nH]ncc13)C2 [Compound 402] | < 3.16 | 32.4 to 100 | < 3.16 | < 3.16 |  |  |  |  |
| Clc1cc(N2CCOCC2)c2cn[nH]c2c1 [Compound 327] | 3.24 to 31.6 | > 100 | 3.24 to 31.6 | 3.24 to 31.6 |  |  |  |  |
| CN(C)C(=O)c1ccc(-c2cc(Cl)cc3[nH]ncc23)cc1 [Compound 255] | < 3.16 | > 100 | 3.24 to 31.6 | 3.24 to 31.6 |  |  |  |  |
| CC(=O)N(C)C1CCN(c2cc(Cl)cc3[nH]ncc23)CC1(C)C (stereo not shown) [Compound 450] | < 3.16 | < 3.16 | < 3.16 | < 3.16 |  |  |  |  |
| O=C1Nc2ccccc2C12CCN(c1cc(Cl)cc3[nH]ncc13)CC2 [Compound 371] | 3.24 to 31.6 | > 100 | 3.24 to 31.6 | < 3.16 |  |  |  |  |
| NS(=O)(=O)c1ccc(-c2cc(Cl)cc3[nH]ncc23)cc1 [Compound 269] | < 3.16 | > 100 | 3.24 to 31.6 | < 3.16 |  |  |  |  |
| CN(C)S(=O)(=O)c1ccc(-c2cc(Cl)cc3[nH]ncc23)cc1 [Compound 277] | < 3.16 | > 100 | 3.24 to 31.6 | < 3.16 |  |  |  |  |
| Clc1cc(N2CCC(c3ncco3)CC2)c2cn[nH]c2c1 [Compound 429] | < 3.16 | 3.24 to 31.6 | 3.24 to 31.6 | < 3.16 |  |  |  |  |
| COCCS(=O)(=O)N1CCC(c2cc(Cl)cc3[nH]ncc23)CC1 [Compound 228] | < 3.16 | 3.24 to 31.6 | 3.24 to 31.6 | < 3.16 |  |  |  |  |
| CNC(=O)C1(C)CCN(c2cc(Cl)cc3[nH]ncc23)CC1 [Compound 382] | < 3.16 | > 100 | 3.24 to 31.6 | < 3.16 |  |  |  |  |
| OC1(c2cc(Cl)cc3[nH]ncc23)CCCCC1 [Compound 273, 1-(6-chloro-1H-indazol-4-yl)cyclohexanol] | < 3.16 | 3.24 to 31.6 | 3.24 to 31.6 | < 3.16 | 0.0135 | 11.7 | 9.55 | 0.0851 |

| SMILES | IC50 (TDO [1]; 500 μM L-tryptophan) [µM] | IC50 (IDO [2]; 17 minutes, room temperature) [µM] | IC50 (IDO [3]; [5]) [µM] | IC50 (TDO [4]; 17 minutes, room temperature) [µM] | IC50 (TDO [1]) [µM] | IC50 (IDO [2]) [µM] | IC50 (IDO [3]; [6]) [µM] | IC50 (TDO [4]) [µM] |
| --- | --- | --- | --- | --- | --- | --- | --- | --- |
| CS(=O)(=O)N1CCC(c2cc(C3CCCC3)cc3[nH]ncc23)CC1 [Compound 218] | > 100 | 32.4 to 100 | 32.4 to 100 | > 100 |  |  |  |  |
| O[C@H]1CCCC[C@@H]1c1cc(Cl)cc2[nH]ncc12 [Compound 418] | < 3.16 | > 100 | > 100 | < 3.16 |  |  |  |  |
| CC(C)Cn1cc(-c2cc(Cl)cc3[nH]ncc23)cn1 [Compound 396, 6-chloro-4-(1-isobutyl-1H-pyrazol-4-yl)-1H-indazole] | < 3.16 | > 100 | > 100 | 3.24 to 31.6 | 0.832 | > 257 | > 10 | 3.63 |
| C[C@H]1CN(S(C)(=O)=O)CCN1c1cc(C(F)(F)F)cc2[nH]ncc12 [Compound 214] | < 3.16 | 32.4 to 100 | 3.24 to 31.6 | < 3.16 |  |  |  |  |
| CNc1cc(-c2cc(Cl)cc3[nH]ncc23)ccn1 [Compound 279] | < 3.16 | > 100 | < 3.16 | < 3.16 |  |  |  |  |
| CNC(=O)CN1CCN(c2cc(Cl)cc3[nH]ncc23)CC1(C)C [Compound 413] | < 3.16 | < 3.16 | 3.24 to 31.6 | < 3.16 |  |  |  |  |
| CC(=O)N1CCC2(CCN(c3cc(Cl)cc4[nH]ncc34)CC2)C1 [Compound 350] | < 3.16 | 32.4 to 100 | 3.24 to 31.6 | < 3.16 |  |  |  |  |
| CC(=O)N1CCN(c2cc(Cl)cc3[nH]ncc23)CC1CO (stereo not shown) [Compound 454] | < 3.16 | 32.4 to 100 | > 100 | < 3.16 |  |  |  |  |
| O=C1NCC2(CCN(c3cc(Cl)cc4[nH]ncc34)CC2)N1 [Compound 267] | < 3.16 | 3.24 to 31.6 | 3.24 to 31.6 | < 3.16 |  |  |  |  |
| O=C1NC2(CCN(c3cc(Br)cc4[nH]ncc34)CC2)C(=O)N1Cc1ccccc1 [Compound 406] | < 3.16 | < 3.16 | < 3.16 | < 3.16 |  |  |  |  |
| CN(CC1CCCN(c2cc(Cl)cc3[nH]ncc23)C1)S(C)(=O)=O (stereo not shown) [Compound 285] | 3.24 to 31.6 | > 100 | 32.4 to 100 | 3.24 to 31.6 |  |  |  |  |
| O=C1CCCC2(CCN(c3cc(Cl)cc4[nH]ncc34)CC2)N1 [Compound 216] | < 3.16 | > 100 | 3.24 to 31.6 | < 3.16 |  |  |  |  |
| Clc1cc(N2CCc3ccncc3C2)c2cn[nH]c2c1 [Compound 346] | < 3.16 | > 100 | 3.24 to 31.6 | < 3.16 |  |  |  |  |
| CS(=O)(=O)N1CCC2(CCN(c3cc(Cl)cc4[nH]ncc34)CC2)CC1 [Compound 355] | < 3.16 | 32.4 to 100 | 3.24 to 31.6 | < 3.16 |  |  |  |  |
| CS(=O)(=O)NCCn1cc(-c2cc(Cl)cc3[nH]ncc23)cn1 [Compound 373] | < 3.16 | > 100 | 32.4 to 100 | 3.24 to 31.6 |  |  |  |  |
| Clc1cc(-c2cnn(-c3ccccc3)c2)c2cn[nH]c2c1 [Compound 399] | < 3.16 | > 100 | > 100 | > 100 |  |  |  |  |
| O=C1N[C@H]2CC[C@@H]1CN(c1cc(Br)cc3[nH]ncc13)C2 [Compound 438] | < 3.16 | 3.24 to 31.6 | > 100 | < 3.16 |  |  |  |  |
